Source: patent US20050181021A1, “Vitamin E phosphate/phosphatidycholine liposomes to protect from or ameliorate cell damage” (priority 1992, published 2005)
Values belong to the molecule of their own block, whether it stands above or below them.

Legend:
male albino mice = test: Allyl alcohol-induced liver injury in mice (SGPT); type: in vivo; conditions: allyl alcohol alone, 50 mg/kg single intraperitoneal dose, 4 hours
Description: Influence of vitamin E phosphate/phosphatidylcholine liposomes (see example 1) on Allyl alcohol-induced liver injury was evaluated in male albino mice.

Liver cells [1] = test: Phosphatidylcholine formation in liver cells dysfunctional due to ethanol exposure; type: cell-based; conditions: cells exposed to ethanol
Description: Liver cells which had become dysfunctional due to exposure to ethanol were incubated 24 hours with vitamin E phosphate/phosphatidylcholine liposomes. The pmoles of phosphatidylcholine formed per minute/mg protein was then measured with the following results: […]

cultured liver cells = test: Reversal of ethanol damage in cultured liver cells (phosphatidylcholine biosynthesis); type: cell-based; conditions: 96 h
Description: The use of vitamin E phosphate/phosphatidylcholine to effect reversal of damage from ethanol on liver cells was then studied. The cultured liver cells were incubated with 25 mM or 50 mM ethanol for 96 hours, at which time there is significant reduction in liver cell function (phosphatidylcholine biosynthesis). The effect of adding vitamin E phosphate/phosphatdylcholine after 72 hours was studied, and 24 hours later (96 hours after initial exposure to ethanol) values were obtained.

[2] = Precipitation in the presence of divalent metal salts; type: physicochemical
Excerpt: Liposomes were made using salts of the vitamin E phosphate and phosphatidylcholine. These salts were protected by liposomes to avoid precipitation in the presence of 2^+ metal ions.

[3] = test system: isolated liver cells (1000×g cell fraction); type: cell-based; conditions: phosphatidylcholine 100 μM, vitamin E phosphate 50 μm; for LCLP % control + SEM: in presence of 1 mM iron
Liver cells [4] = test: Incorporation of labeled choline into phosphatidylcholine (PC biosynthesis) by liver cells with iron; type: cell-based
Excerpt: The study of effects on liver cells was also considered based on evaluation of effect on increase in the incorporation of labeled choline into phosphatidylcholine (phosphatidylcholine biosynthesis) by liver cells. Vitamin E phosphate/phosphatidylcholine produced greater beneficial effects than either vitamin E phosphate or phosphatidylcholine. [table]

[5] = in presence of 1 mM iron, phosphatidylcholine 100 μM, vitamin E phosphate 50 μm

Molecule: C=CCO [Allyl alcohol]
SGPT % of control ± SEM (male albino mice): 330 ± 15 % of control

pmoles of phosphatidylcholine formed per minute/mg protein (Liver cells [1]): 25 pmoles per minute/mg protein
pmoles of phosphatidylcholine formed per minute/mg protein (Liver cells [1]; then incubated 24 hours in water): 27 pmoles per minute/mg protein
Molecule: CCO [ETOH, ethanol]
phosphatidylcholine biosynthesis % control ± SEM (cultured liver cells; 25 mM ethanol alone): 38 ± 2 % control
phosphatidylcholine biosynthesis % control ± SEM (cultured liver cells; 50 mM ethanol alone): 22 ± 1 % control

behaviour in the presence of divalent metal salts [2]: precipitated
Molecule: Cc1c(C)c2c(c(C)c1OP(=O)(O)O)CCC(C)(CCCC(C)CCCC(C)CCCC(C)C)O2 (stereo not shown) [VEP, vitamin E phosphate]
LCLP % control + SEM [3]: 167 ± 3 % control
iron-dependent lipid peroxidation in isolated liver cells (result in words) [3]: significantly reduced
PC biosynthesis % control + SEM (Liver cells [4]; [5]): 145 ± 4 % control

Molecule: [Fe] [iron]
PC biosynthesis % control + SEM (Liver cells [4]; 1 mM iron alone): 254 ± 9 % control

Molecule: phosphatidylcholine [PC]
LCLP % control + SEM [3]: 281 ± 4 % control
iron-dependent lipid peroxidation in isolated liver cells (result in words) [3]: significantly reduced
PC biosynthesis % control + SEM (Liver cells [4]; [5]): 167 ± 4 % control
